The record followed here is US20220144840A1, “HETEROCYCLIC COMPOUNDS AND THEIR USE IN THE TREATMENT OF AMYLOID-RELATED DISEASES” (D.E. Shaw Research, LLC, priority 2019, published 2022).

Where only a bound is given, the exact number is not on record here.

The target of the assay is T1, Beta-Amyloid (1-42), human (Homo sapiens, UniProt P05067).
T1 construct: Component B: Beta-Amyloid (1-42), human, 0.25 mg×2, lyophilized;; purchased AnaSpec AS-72214
T1 sequence (P05067 672-713 limits assumed): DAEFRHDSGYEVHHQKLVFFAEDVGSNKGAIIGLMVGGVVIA
As to the kind of experiment: Thioflavin T (ThT) Beta-Amyloid (1-42) Aggregation Assay. The conditions noted are these: 8 μM Beta-Amyloid (1-42), 50 μM ThT dye, 37° C., slope of fluorescence time course; read-out: IC50 for inhibiting amyloids. In kind it is biochemical. The method, then: This assay is used to evaluate the disclosed compounds' activities for inhibiting amyloids.
Thioflavin T (ThT) Beta-Amyloid (1-42) Aggregation Assay Protocol
SensoLyte Thioflavin T Beta-Amyloid (1-42) Aggregation Kit was used (AnaSpec Cat #AS-72214), which includes the following components:
Component A: Assay Buffer (Buffer components are not disclosed);
Component B: Beta-Amyloid (1-42), human, 0.25 mg×2, lyophilized;
Component C: 20 mM ThT solution; and
Component D: 20 mM Phenol Red (Control Inhibitor).
The following buffer was used: 0.005% Tween 20, Assay Buffer from Kit (Component A), and 1% DMSO (final including carryover from compounds).
The final reaction conditions include 8 μM Beta-Amyloid (1-42) and 50 μM ThT dye.
Corning cat #3573, Non-Treated, Black 384-well plate was used as assay plate.
Morin (Sigma Cat #: M4008-2G) was used as control inhibitor.
The reaction procedure is as follows: • 1. Prepare 2×ThT solution in Reaction Buffer; keep in the dark; • 2. Deliver 10 μl/well of 2×ThT solution into the wells; • 3. Prepare 2× Beta-Amyloid solution in Reaction Buffer in polypropylene tube, sonicate for 5 min; keep on ice until use; • 4. Deliver compounds in DMSO into the ThT solution by Acoustic technology (Echo550; nanoliter range), no pre-incubation; • 5. Immediately after compound addition, deliver 10 μL/well of Beta-Amyloid solution into the reaction well, buffer into “No peptide” wells instead; • 6. Immediately start measuring fluorescence intensity in EnVision, set at 37° C., (Ex/Em=450/485 nm) as a time-course measurement every 5 min (30 sec shaking between each read) for 3 hours; • 7. Analyze data by taking slope (signal/time) of linear portion (typically 5 to 45 min) of measurement (therefore time period taken for slope for analysis is different for each target); and • 8. Slope is calculated by using Excel, and curve fits are performed using Prism software.
For `Clc1ccc2nc(SCc3cn4cc(Cl)ccc4n3)[nH]c2c1` [Compound 1, 6-chloro-2-[([6-chloroimidazo[1,2-a]pyridin-2-yl]methyl)sulfanyl]-1H-1,3-benzodiazole], the IC50 is less than 100 µM.
To `O=[N+]([O-])c1ccc2nc(SCc3nc4ccc(Cl)cn4c3Br)[nH]c2c1` [Compound 2, 2-[([3-bromo-6-chloroimidazo[1,2-a]pyridin-2-yl]methyl)sulfanyl]-6-nitro-1H-1,3-benzodiazole] belongs less than 200 µM; to `Cn1c(CSc2nc3ncccn3n2)nc2cc(Cl)ccc21` [Compound 3, 5-chloro-1-methyl-2-([[1,2,4]triazolo[1,5-a]pyrimidin-2-ylsulfanyl]methyl)-1,3-benzodiazole], less than 200 µM; to `CCn1c(SCc2cn3cc(C)ccc3n2)nc2ccccc21` [Compound 4, 1-ethyl-2-[([6-methylimidazo[1,2-a]pyridin-2-yl]methyl)sulfanyl]-1,3-benzodiazole], less than 100 µM.
The value for `Cc1ccc2nc(CSc3nc4ccc(Cl)cc4[nH]3)cn2c1` [Compound 5] was less than 200 µM.
